# According to ChEMBL document CHEMBL3352042, “Synthesis of novel benzimidazole functionalized chiral thioureas and evaluation of their antibacterial and anticancer activities” (Bioorg Med Chem Lett, 2014):
# Activity calls are given as the source filed them. The calls are words filed in the database; no cut-off is given here.
# How the values were obtained:
# Staphylococcus aureus [1] = assay: Antibacterial activity against Staphylococcus aureus MTCC 96 after 24 hrs by well diffusion method; format: functional
# Pseudomonas aeruginosa = assay: Antibacterial activity against Pseudomonas aeruginosa MTCC 2453 after 24 hrs by well diffusion method; format: functional
# HeLa = assay: Cytotoxicity against human HeLa cells by MTT assay; format: functional, cell-based
# A549 = assay: Cytotoxicity against human A549 cells by MTT assay; format: functional, cell-based
# Micrococcus luteus = assay: Antibacterial activity against Micrococcus luteus MTC 2470 after 24 hrs by well diffusion method; format: functional
# MCF7 = assay: Cytotoxicity against human MCF7 cells by MTT assay; format: functional, cell-based; settings: Homo sapiens, MCF7; read-out: IC50
# Raoultella planticola = assay: Antibacterial activity against Klebsiella planticola MTCC 530 after 24 hrs by well diffusion method; format: functional
# DU-145 = assay: Cytotoxicity against human DU145 cells by MTT assay; format: functional, cell-based; settings: Homo sapiens, DU-145; read-out: IC50
# Escherichia coli = assay: Antibacterial activity against Escherichia coli MTCC 739 after 24 hrs by well diffusion method; format: functional
# Bacillus subtilis = assay: Antibacterial activity against Bacillus subtilis MTCC 121 after 24 hrs by well diffusion method; format: functional
# Staphylococcus aureus [2] = assay: Antibacterial activity against Staphylococcus aureus MLS16 MTCC 2940 after 24 hrs by well diffusion method; format: functional
# [3] = Homo sapiens, A549, read-out: IC50
# [4] = Homo sapiens, HeLa, read-out: IC50
Compound,MIC (Staphylococcus aureus [1]),MIC (Pseudomonas aeruginosa),IC50 (HeLa; hela),IC50 (A549; [3]) [µM],MIC (Micrococcus luteus),IC50 (MCF7) [µM],MIC (Raoultella planticola),IC50 (DU-145) [µM],MIC (Escherichia coli),MIC (Bacillus subtilis),MIC (Staphylococcus aureus [2]),"MIC (Staphylococcus aureus [1]; MTCC 96, 24 h) [µg/mL]","MIC (Pseudomonas aeruginosa; MTCC 2453, 24 h) [µg/mL]",IC50 (HeLa; [4]) [µM],"MIC (Micrococcus luteus; MTC 2470, 24 h) [µg/mL]","MIC (Raoultella planticola; MTCC 530, 24 h) [µg/mL]","MIC (Escherichia coli; MTCC 739, 24 h) [µg/mL]","MIC (Bacillus subtilis; MTCC 121, 24 h) [µg/mL]","MIC (Staphylococcus aureus [2]; MLS16 MTCC 2940, 24 h) [µg/mL]",IC50 (A549; a549)
S=C(NCc1ccccc1)N[C@H](Cc1ccccc1)c1nc2ccccc2[nH]1,inactive,inactive,Not Active,26.5,inactive,32.2,inactive,24.3,inactive,inactive,inactive,,,,,,,,,
CC(C)C[C@H](NC(=S)Nc1ccccc1)c1nc2ccccc2[nH]1,,,,28.6,,25.8,,28.9,,,,25,> 200,29.1,> 200,> 200,> 200,> 200,> 200,
CC(C)[C@H](NC(=S)NCc1ccccc1)c1nc2ccccc2[nH]1,,,,56.1,,57.8,,48.5,,,,12.5,> 200,49.9,> 200,> 200,> 200,12.5,> 200,
CC(C)C[C@@H](NC(=S)Nc1cc(C(F)(F)F)cc(C(F)(F)F)c1)c1nc2ccccc2[nH]1,inactive,inactive,,10.2,inactive,91,inactive,16.5,inactive,inactive,inactive,,,10.4,,,,,,
S=C(NCc1ccccc1)N[C@@H](Cc1ccccc1)c1nc2ccccc2[nH]1,,,,32.8,,40.2,,39.7,,,,25,> 200,30.1,> 200,> 200,> 200,> 200,> 200,
C[C@@H](NC(=S)Nc1ccccc1)c1nc2ccccc2[nH]1,inactive,inactive,,14.8,inactive,16.4,inactive,22.1,inactive,inactive,inactive,,,12.4,,,,,,
CC(C)C[C@@H](NC(=S)Nc1ccccc1)c1nc2ccccc2[nH]1,inactive,inactive,,18.7,inactive,11.9,inactive,20,inactive,inactive,inactive,,,12.1,,,,,,
COc1cccc2c1C(=O)c1c(O)c3c(c(O)c1C2=O)C[C@@](O)(C(=O)CO)C[C@@H]3O[C@H]1C[C@H](N)[C@H](O)[C@H](C)O1 [DOXORUBICIN],,,,,,,,0.8,,,,,,,,,,,,
NC[C@@H]1O[C@H](O[C@H]2[C@@H](O)[C@H](O[C@@H]3[C@@H](O)[C@H](N)C[C@H](N)[C@H]3O[C@H]3O[C@H](CN)[C@@H](O)[C@H](O)[C@H]3N)O[C@@H]2CO)[C@H](N)[C@@H](O)[C@@H]1O [FRAMYCETIN],,,,,,,,,,,,12.5,12.5,,12.5,12.5,12.5,12.5,12.5,
C[C@H](NC(=S)NCc1ccccc1)c1nc2ccccc2[nH]1,,,,,,217,,226,,,,12.5,> 200,,> 200,> 200,> 200,25,> 200,Not Active
CC(C)C[C@H](NC(=S)NCc1ccccc1)c1nc2ccccc2[nH]1,,,,75.7,,,,21.1,,,,> 200,> 200,31.2,> 200,> 200,> 200,> 200,> 200,
